Laboratory results published in patent US9302999B2, “Substituted triazoles as herbicides” (E. I. DU PONT DE NEMOURS AND COMPANY, priority 2012, dated 2016).

Key:
Type in all cases: in vivo
[1] = system: nightshade (eastern black nightshade, Solanum ptycanthum); assay: Test E pre-/postemergence: nightshade; conditions: Preemergence, scale 0 to 100
Text: (§1) Seeds of plant species selected from corn (Zea mays), soybean (Glycine max), velvetleaf (Abutilon theophrasti), lambsquarters (Chenopodium album), poinsettia, wild (wild poinsettia, Euphorbia heterophylla), pigweed, palmer (palmer pigweed, Amaranthus palmeri), waterhemp (common waterhemp, Amaranthus rudis), smartweed (ladysthumb smartweed, Polygonum persicaria), surinam grass (Brachiaria decumbens), crabgrass, large (large crabgrass, Digitaria sanguinalis), crabgrass, Brazil (Brazilian crabgrass, Digitaria horizontalis), panicum, fall (fall panicum, Panicum dichotomiflorum), foxtail, giant (giant foxtail, Setaria faberii), foxtail, green (green foxtail, Setaria viridis), goosegrass (Eleusine indica), johnsongrass (Sorghum halepense), ragweed (common ragweed, Ambrosia elation), barnyardgrass (Echinochloa crus-galli), sandbur (southern sandbur, Cenchrus echinatus), arrowleaf sida (Sida rhombifolia), ryegrass, Italian (Italian ryegrass, Lolium multiflorum), dayflower, (VA) (Virginia dayflower, Commelina virginica), field bindweed (Convolvulus arvensis), cocklebur (common cocklebur, Xanthium strumarium), morningglory (Ipomoea coccinea), nightshade (eastern black nightshade, Solanum ptycanthum), kochia (Kochia scoparia), nutsedge, yellow (yellow nutsedge, Cyperus esculentus) and beggarticks (hairy beggarticks, Bidens pilosa) were planted into a silt loam soil and treated preemergence with test chemicals formulated in a non-phytotoxic solvent mixture which included a surfactant. At the same time, plants selected from these crop and weed species were planted in pots containing a growing medium comprising spaghnum peat moss, vermiculite, wetting agent and starter nutrients and treated with postemergence applications of some of the test chemicals formulated in the same manner. Plants ranged in height from 2 to 18 cm for postemergence treatments (1- to 4-leaf stage).
(§2) Treated plants and controls were maintained in a greenhouse for 14 to 21 days, after which time all species were compared to controls and visually evaluated. Plant response ratings, summarized in Table E, are based on a scale of 0 to 100 where 0 is no effect and 100 is complete control. A dash (-) response means no test result.

[2] = system: foxtail, giant (giant foxtail, Setaria faberii); assay: Test E pre-/postemergence: foxtail, giant; conditions: Preemergence, scale 0 to 100
Text: as §1, §2

[3] = system: lambsquarters (Chenopodium album); assay: Test E pre-/postemergence: lambsquarters; conditions: Preemergence, scale 0 to 100
Text: as §1, §2

[4] = system: pigweed (Amaranthus retroflexus); assay: Test F postemergence: pigweed; conditions: scale 0 to 100
Text: (§3) Seeds of plant species selected from corn (Zea mays), soybean (Glycine max), velvetleaf (Abutilon theophrasti), lambsquarters (Chenopodium album), poinsettia, wild (wild poinsettia, Euphorbia heterophylla), pigweed, palmer (palmer pigweed, Amaranthus palmeri), waterhemp (common waterhemp, Amaranthus rudis), surinam grass (Brachiaria decumbens), crabgrass, Brazil (Brazilian crabgrass, Digitaria horizontalis), panicum, fall (fall panicum Panicum dichotomiflorum), crabgrass, large (large crabgrass, Digitaria sanguinalis), foxtail, giant (giant foxtail, Setaria faberii), foxtail, green (green foxtail Setaria viridis), goosegrass (Eleusine indica), ragweed (common ragweed, Ambrosia elatior), barnyardgrass (Echinochloa crus-galli), sandbur (southern sandbur, Cenchrus echinatus), arrowleaf sida (Sida rhombifolia), ryegrass, Italian (Italian ryegrass, Lolium multiflorum), dayflower, VA (Virginia (VA) dayflower, Commelina virginica), field bindweed (Convolvulus arvensis), cocklebur (common cocklebur, Xanthium strumarium), morningglory (Ipomoea coccinea), nightshade (eastern black nightshade, Solanum ptycanthum), kochia (Kochia scoparia), nutsedge, yellow (yellow nutsedge, Cyperus esculentus), johnsongrass (Sorghum halepense), smartweed (ladysthumb smartweed, Polygonum persicaria), and beggarticks (hairy beggarticks, Bidens pilosa), were planted into a silt loam soil and treated preemergence with test chemicals formulated in a non-phytotoxic solvent mixture which included a surfactant. At the same time, plants selected from these crop and weed species and also pigweed (Amaranthus retroflexus), waterhemp_RES1 (ALS/Triazine resistant common waterhemp, Amaranthus rudis) and waterhemp_RES2 (ALS/HPPD resistant common waterhemp, Amaranthus rudis) were planted in pots containing a planting medium comprising spaghnum peat moss, vermiculite, wetting agent and starter nutrients treated with postemergence applications of some of the test chemicals formulated in the same manner. Plants ranged in height from 2 to 18 cm for postemergence treatments (1- to 4-leaf stage).
as §2

[5] = system: smartweed (ladysthumb smartweed, Polygonum persicaria); assay: Test F pre-/postemergence: smartweed
Text: as §3, §2

[6] = system: Waterhemp; assay: Test C preemergence: waterhemp; conditions: scale 0 (no effect) to 100 (complete control)
[7] = Preemergence, 16 g ai/ha, scale 0 to 100, 0 no effect, 100 complete control
[8] = Preemergence, 31 g ai/ha, scale 0 to 100, 0 no effect, 100 complete control
[9] = Preemergence, 125 g ai/ha, scale 0 to 100
[10] = Preemergence, 250 g ai/ha, scale 0 to 100
[11] = Postemergence, 250 g ai/ha, scale 0 to 100
[12] = Postemergence, 31 g ai/ha, scale 0 to 100
[13] = Postemergence, 125 g ai/ha, scale 0 to 100

| SMILES | Plant response rating: Nightshade ([1]; 16 g ai/ha) | Plant response rating: Nightshade ([1]; 31 g ai/ha) | Plant response rating: Nightshade ([1]; 62 g ai/ha) | Plant response rating: Nightshade ([1]; 125 g ai/ha) | Plant response rating: Nightshade ([1]; 250 g ai/ha) | Plant response rating: Foxtail, Giant ([2]; 16 g ai/ha) | Plant response rating: Foxtail, Giant ([2]; 31 g ai/ha) | Plant response rating: Foxtail, Giant ([2]; 62 g ai/ha) | Plant response rating: Foxtail, Giant ([2]; 125 g ai/ha) | Plant response rating: Foxtail, Giant ([2]; 250 g ai/ha) | Plant response rating: Lambsquarters ([3]; 31 g ai/ha) | Plant response rating: Lambsquarters ([3]; 62 g ai/ha) | Plant response rating: Lambsquarters ([3]; 125 g ai/ha) | Plant response rating: Lambsquarters ([3]; 250 g ai/ha) | Plant response rating, Smartweed [5, 8] | Plant response rating, Smartweed [5, 9] | Plant response rating, Smartweed [5, 10] | other results |
| --- | --- | --- | --- | --- | --- | --- | --- | --- | --- | --- | --- | --- | --- | --- | --- | --- | --- | --- |
| FC(F)(F)COc1nn(-c2ccc(C(F)(F)F)cc2)nc1Cc1ccnc(C(F)(F)F)c1 [Compound 14, 4-[[5-(2,2,2-trifluoroethoxy)-2-[4-(trifluoromethyl)phenyl]-2H-1,2,3-triazol-4-yl]methyl]-2-(trifluoromethyl)pyridine] | 35 | 60 | 98 | 98 | 98 | 50 | 75 | 98 | 100 | 100 | 98 | 98 | 98 | 98 | – | – | – | Plant response rating: Lambsquarters ([3]; 16 g ai/ha): 80 |
| COc1nn(-c2ccc(C(F)(F)F)cc2)nc1Cc1ccnc(C(F)(F)F)c1 [Compound 15, 4-[[5-methoxy-2-[4-(trifluoromethyl)phenyl]-2H-1,2,3-triazol-4-yl]methyl]-2-(trifluoromethyl)pyridine] | 5 | 35 | 98 | 98 | 100 | 65 | 98 | 100 | 100 | 100 | 100 | 100 | 100 | 100 | – | – | – | Plant response rating: Lambsquarters ([3]; 16 g ai/ha): 90 |
| Cc1nn(-c2ccc(C(F)(F)F)cn2)nc1Oc1ccnc(C(F)(F)F)c1 [Compound 23] | 0 | 0 | 0 | 95 | 98 | 0 | 5 | 5 | 100 | 100 | 0 | 0 | 98 | 98 | – | – | – | – |
| Cc1nn(-c2ccc(C(F)(F)F)cc2)nc1Oc1ccnc(C(F)(F)F)c1 [Compound 120] | 0 | 0 | 80 | 98 | 100 | 85 | 100 | 100 | 100 | 100 | 50 | 90 | 98 | 98 | – | – | – | Plant response rating: Lambsquarters ([3]; 16 g ai/ha): 0 |
| Cc1nn(-c2ccnc(Cl)c2)nc1Cc1ccnc(C(F)(F)F)c1 [Compound 141] | – | – | – | – | – | – | – | – | – | – | – | – | – | – | – | – | – | Plant response rating, Pigweed ([4]; 8 g ai/ha): 90; Plant response rating, Pigweed ([4]; 16 g ai/ha): 95; Plant response rating, Pigweed ([4]; 31 g ai/ha): 95; Plant response rating, Pigweed ([4]; 62 g ai/ha): 95; Plant response rating, Pigweed ([4]; 125 g ai/ha): 95 |
| Cc1nn(-c2ccc(C(F)(F)F)c(F)c2)nc1Oc1ccnc(C(F)(F)F)c1 [Compound 148] | – | – | – | – | – | – | – | – | – | – | – | – | – | – | 0 | 75 | 90 | Plant response rating, Smartweed [5, 7]: 0 |
| FCc1nn(-c2ccc(F)cc2)nc1Oc1ccnc(C(F)(F)F)c1 [Compound 160] | – | – | – | – | – | – | – | – | – | – | – | – | – | – | – | – | – | Plant response rating, Waterhemp ([6]; 16 g ai/ha): 100 |
| CCc1nn(-c2ccc(C(F)(F)F)cc2)nc1Oc1ccnc(C(F)(F)F)c1 [Compound 169] | – | – | – | – | – | – | – | – | – | – | – | – | – | – | 0 | 40 | 95 | Plant response rating, Smartweed [5, 11]: 35; Plant response rating, Smartweed ([5]; Postemergence, 16 g ai/ha, scale 0 to 100): 10; Plant response rating, Smartweed [5, 12]: 10; Plant response rating, Smartweed ([5]; Postemergence, 62 g ai/ha, scale 0 to 100): 15; Plant response rating, Smartweed [5, 13]: 25; Plant response rating, Smartweed [5, 7]: 0 |
| CCc1nn(-c2ccc(F)c(F)c2)nc1Oc1ccnc(C(F)(F)F)c1 [Compound 171] | – | – | – | – | – | – | – | – | – | – | – | – | – | – | 0 | 0 | 5 | Plant response rating, Smartweed [5, 7]: 0 |
| CCCc1nn(-c2ccc(F)c(F)c2)nc1Oc1ccnc(C(F)(F)F)c1 [Compound 172] | – | – | – | – | – | – | – | – | – | – | – | – | – | – | 5 | 50 | 98 | Plant response rating, Smartweed [5, 11]: 70; Plant response rating, Smartweed [5, 12]: 30; Plant response rating, Smartweed [5, 13]: 60 |
| CCOc1nn(-c2ccc(Cl)cc2)nc1Cc1ccnc(C(F)(F)F)c1 [Compound 188] | – | – | – | – | – | – | – | – | – | – | – | – | – | – | – | – | – | Plant response rating, Waterhemp ([6]; 31 g ai/ha): 100 |
| CCOc1nn(-c2ccc(F)cc2)nc1Cc1ccnc(C(F)(F)F)c1 [Compound 196, 4-[[5-ethoxy-2-(4-fluorophenyl)-2H-1,2,3-triazol-4-yl]methyl]-2-(trifluoromethyl)pyridine] | – | – | – | – | – | – | – | – | – | – | – | – | – | – | – | – | – | Plant response rating, Pigweed ([4]; 8 g ai/ha): 85; Plant response rating, Pigweed ([4]; 16 g ai/ha): 95; Plant response rating, Pigweed ([4]; 31 g ai/ha): 95; Plant response rating, Pigweed ([4]; 62 g ai/ha): 95; Plant response rating, Pigweed ([4]; 125 g ai/ha): 95 |
